Like-named read-outs stand apart in the source and are kept apart here.
Key:
HIV strain F = assay: Cellular anti-HIV assay, clinically isolated mutant strain F; format: cell-based; conditions: FR=EC50 (mutant strain)/EC50 (HIV-1 strain LAI)
Experimental: (§1) HIV- or mock-infected MT4 cells were incubated for five days in the presence of various concentrations of the inhibitor. […] Cell viability is measured by measuring the concentration of MTT, a yellow, water soluble tetrazolium dye that is converted to a purple, water insoluble formazan in the mitochondria of living cells only. Upon solubilization of the resulting formazan crystals with isopropanol, the absorbance of the solution is monitored at 540 nm. The values correlate directly to the number of living cells remaining in the culture at the completion of the five day incubation. The inhibitory activity of the compound was monitored on the virus-infected cells and was expressed as EC50 and EC90. These values represent the amount of the compound required to protect 50% and 90%, respectively, of the cells from the cytopathogenic effect of the virus. […] The selectivity index (SI) (ratio CC50/EC50) is an indication of the selectivity of the anti-HIV activity of the inhibitor. Wherever results are reported as e.g. pEC50 or pCC50 values, the result is expressed as the negative logarithm of the result expressed as EC50 or CC50 respectively.
(§2) Because of the increasing emergence of drug resistant HIV strains, the present compounds were tested for their potency against clinically isolated HIV strains harboring several mutations (Table 7 and 8).
(§3) As a measure of the broad spectrum activity of the present compounds, the fold resistance (FR), defined as FR=EC50 (mutant strain)/EC50 (HIV-1 strain LAI), was determined.

HIV-1 strain LAI = assay: Cellular anti-HIV assay (MTT), wild type strain; format: cell-based; conditions: for pEC50: MT4 cells, five days, MTT, HIV-1 strain LAI, Tables 1-6; for WT (pEC50 against wild type HIV-LAI strain): Table 8
Experimental: The compounds of the present invention were examined for anti-viral activity in a cellular assay. […] The cellular assay was performed according to the following procedure.

HIV strain B = assay: Cellular anti-HIV assay, clinically isolated mutant strain B; format: cell-based; conditions: FR=EC50 (mutant strain)/EC50 (HIV-1 strain LAI)
Experimental: as §1, §2, §3

HIV strain D = assay: Cellular anti-HIV assay, clinically isolated mutant strain D; format: cell-based; conditions: FR=EC50 (mutant strain)/EC50 (HIV-1 strain LAI)
Experimental: as §1, §2, §3

HIV strain C = assay: Cellular anti-HIV assay, clinically isolated mutant strain C; format: cell-based; conditions: FR=EC50 (mutant strain)/EC50 (HIV-1 strain LAI)
Experimental: as §1, §2, §3

HIV strain E = assay: Cellular anti-HIV assay, clinically isolated mutant strain E; format: cell-based; conditions: FR=EC50 (mutant strain)/EC50 (HIV-1 strain LAI)
Experimental: as §1, §2, §3

mock-infected MT4 cells = assay: Toxicity on mock-infected cells (MTT)
Experimental: as §1, §3

HIV strain A = assay: Cellular anti-HIV assay, clinically isolated mutant strain A; format: cell-based; conditions: FR=EC50 (mutant strain)/EC50 (HIV-1 strain LAI)
Experimental: as §1, §2, §3

[1] = pCC50 with mock transfected cells

Row | Compound | F (FR towards mutant F) (HIV strain F) | pEC50 (HIV-1 strain LAI) | WT (pEC50 against wild type HIV-LAI strain) (HIV-1 strain LAI) | B (FR towards mutant B) (HIV strain B) | D (FR towards mutant D) (HIV strain D) | C (FR towards mutant C) (HIV strain C) | E (FR towards mutant E) (HIV strain E) | Tox (pCC50) (mock-infected MT4 cells) | A (FR value towards mutant A) (HIV strain A) | Tox (pCC50) (mock-infected MT4 cells; [1])
1 | CC(C)CN(CC(O)C(Cc1ccccc1)NC(=O)OC1COC2OCCC12)S(=O)(=O)c1ccc(-c2csc(N)n2)cc1 (stereo not drawn) [Compound 2] | 91 | 8.5 | 8.5 | 10.0 | 9.3 | 3.0 | 8.9 | 4.07 | 26 | 
2 | CC(=O)Nc1nc(-c2ccc(S(=O)(=O)N(CC(C)C)CC(O)C(Cc3ccccc3)NC(=O)OC3COC4OCCC34)cc2)cs1 (stereo not drawn) [Compound 3] | 151 | 8.3 | 8.3 | 8.9 | 26 | 7.4 | 17 |  | 39 | 4.11
3 | CC(C)CN(CC(O)C(Cc1ccccc1)NC(=O)OC1COC2OCCC12)S(=O)(=O)c1ccc(-c2csc(NCCCN(C)C)n2)cc1 (stereo not drawn) [Compound 6] | 79 | 7.5 | 7.5 | 4.7 | 3.8 | 1.2 | 6.6 | 4.69 | 6.2 | 
4 | Cc1nc(-c2ccc(S(=O)(=O)N(CC(C)C)CC(O)C(Cc3ccccc3)NC(=O)OC3COC4OCCC34)cc2)co1 (stereo not drawn) [Compound 35] | 42 | 8.4 | 8.4 | 10.5 | 6.2 | 8.3 | 8.3 | <4.0 | 11 | 
5 | CC(C)CN(C[C@@H](O)[C@H](Cc1ccccc1)NC(=O)O[C@H]1CO[C@H]2OCC[C@H]21)S(=O)(=O)c1ccc(-c2noc(-c3ccco3)n2)cc1 [Compound 38, [(1S,2R)-3-[N-[4-(5-(furan-2-yl)oxadiazol-3-yl)phenylsulfonyl]-N-(2-methylpropyl)amino]-2-hydroxy-1-(phenylmethyl)propyl]carbamic acid, [(3R,3aS,6aR)-hexahydrofuro[2,3-b]furan-3-yl]ester] | 44.7 | 8.4 | 8.4 | 23 | 14.8 | 6.8 | 9.5 |  | 30 | <4.49
6 | COc1cccc(-c2nc(-c3ccc(S(=O)(=O)N(CC(C)C)CC(O)C(Cc4ccccc4)NC(=O)OC4COC5OCCC45)cc3)co2)c1 (stereo not drawn) [Compound 44] | 77 | 8.0 | 8.0 | 14 | 15 | 8.1 | 13 |  | 39 | <4.49
7 | [(1S,2R)-2-hydroxy-3-[N-[4-(2-methylaminothiazol-4-yl)phenylsulfonyl]-N-(2-methylpropyl)amino]-1-(phenylmethyl)propyl]carbamic acid, [(3R,3aS,6aR)-hexahydrofuro[2,3-b]furan-3-yl]ester [Compound 1] | 42 | 8.5 | 8.5 | 2.1 | 7.9 | 1.2 | 5.0 |  | 5.4 | 4.19
